# Experimental data: the supplement of paper PMC11061612
# Columns and labels:
# [1] = tested on: KYSE-70 (Esophageal Squamous Cell Carcinoma); test: Bliss excess, mean over the matrix (fraction); higher = more synergy
# How it was run: (§1)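 Cell lines grown in DMEM/F12 or RPMI with 10% FBS were plated in 1536-well plates and held 24 hours at 37°C, 5% CO2 before 72 hours of exposure to two-drug dose matrices, with DMSO typically at 0.2%. CellTiter-Glo 2.0 luminescence gave viability, which was converted to inhibition. Vehicle wells were set to 0 and blank wells to 1. Combination Emax is the second-highest inhibition in the matrix, and Bliss excess is the observed combination effect minus the expected EA + EB − EA·EB, where EA and EB are the single-agent effects.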
# [2] = tested on: NKM-1 (Acute Myeloid Leukemia); test: as above
# How it was run: as §1
# [3] = tested on: SW684 (Other Solid Carcinomas); test: as above
# How it was run: as §1
# [4] = tested on: NCI-H1755 (Lung Adenocarcinoma); test: as above
# How it was run: as §1
# [5] = tested on: EB-3 (Burkitt's Lymphoma); test: as above
# How it was run: as §1
# [6] = tested on: CML-T1 (Chronic Myelogenous Leukemia); test: as above
# How it was run: as §1
# [7] = tested on: LAMA-84 (Chronic Myelogenous Leukemia); test: as above
# How it was run: as §1
# [8] = tested on: KYM-1 (Rhabdomyosarcoma); test: as above
# How it was run: as §1
# [9] = tested on: PC-14 (Lung Adenocarcinoma); test: as above
# How it was run: as §1
# [10] = tested on: NCI-H810 (Non-Small Cell Lung Carcinoma); test: as above
# How it was run: as §1
# [11] = tested on: HCC-44 (Lung Adenocarcinoma); test: as above
# How it was run: as §1
# [12] = tested on: CHL-1 (Melanoma); test: as above
# How it was run: as §1
# [13] = tested on: Becker (Low Grade Glioma); test: as above
# How it was run: as §1
# [14] = tested on: RMG-I (Ovarian Carcinoma); test: as above
# How it was run: as §1
# [15] = tested on: SK-MM-2 (Plasma Cell Myeloma); test: as above
# How it was run: as §1
# [16] = tested on: OV-90 (Ovarian Carcinoma); test: as above
# How it was run: as §1
# [17] = tested on: LOUCY (T-Lymphoblastic Leukemia); test: as above
# How it was run: as §1
# [18] = tested on: PANC-02-03 (Pancreatic Carcinoma); test: as above
# How it was run: as §1
# [19] = tested on: COLO-684 (Endometrial Carcinoma); test: as above
# How it was run: as §1
# [20] = tested on: FLO-1 (Esophageal Adenocarcinoma); test: as above
# How it was run: as §1
# [21] = tested on: KYSE-70 (Esophageal Squamous Cell Carcinoma); test: combination Emax (second highest fraction inhibited in the dose matrix, 72 h); higher = more inhibition; extreme values may be limits of the assay
# How it was run: as §1
# [22] = tested on: NKM-1 (Acute Myeloid Leukemia); test: as above
# How it was run: as §1
# [23] = tested on: SW684 (Other Solid Carcinomas); test: as above
# How it was run: as §1
# [24] = tested on: NCI-H1755 (Lung Adenocarcinoma); test: as above
# How it was run: as §1
# [25] = tested on: EB-3 (Burkitt's Lymphoma); test: as above
# How it was run: as §1
# [26] = tested on: CML-T1 (Chronic Myelogenous Leukemia); test: as above
# How it was run: as §1
# [27] = tested on: LAMA-84 (Chronic Myelogenous Leukemia); test: as above
# How it was run: as §1
# [28] = tested on: KYM-1 (Rhabdomyosarcoma); test: as above
# How it was run: as §1
# [29] = tested on: PC-14 (Lung Adenocarcinoma); test: as above
# How it was run: as §1
# [30] = tested on: NCI-H810 (Non-Small Cell Lung Carcinoma); test: as above
# How it was run: as §1
# [31] = tested on: HCC-44 (Lung Adenocarcinoma); test: as above
# How it was run: as §1
# [32] = tested on: CHL-1 (Melanoma); test: as above
# How it was run: as §1
# [33] = tested on: Becker (Low Grade Glioma); test: as above
# How it was run: as §1
# [34] = tested on: RMG-I (Ovarian Carcinoma); test: as above
# How it was run: as §1
# [35] = tested on: SK-MM-2 (Plasma Cell Myeloma); test: as above
# How it was run: as §1
# [36] = tested on: OV-90 (Ovarian Carcinoma); test: as above
# How it was run: as §1
# [37] = tested on: LOUCY (T-Lymphoblastic Leukemia); test: as above
# How it was run: as §1
# [38] = tested on: PANC-02-03 (Pancreatic Carcinoma); test: as above
# How it was run: as §1
# [39] = tested on: COLO-684 (Endometrial Carcinoma); test: as above
# How it was run: as §1
# [40] = tested on: FLO-1 (Esophageal Adenocarcinoma); test: as above
# How it was run: as §1
# 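Wherever Bliss excess, mean over the matrix is given: after 72 h of two-drug dosing.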
SMILES,Bliss excess [1],Bliss excess [2],Bliss excess [3],Bliss excess [4],Bliss excess [5],Bliss excess [6],Bliss excess [7],Bliss excess [8],Bliss excess [9],Bliss excess [10],Bliss excess [11],Bliss excess [12],Bliss excess [13],Bliss excess [14],Bliss excess [15],Bliss excess [16],Bliss excess [17],Bliss excess [18],Bliss excess [19],Bliss excess [20],combination Emax [21],combination Emax [22],combination Emax [23],combination Emax [24],combination Emax [25],combination Emax [26],combination Emax [27],combination Emax [28],combination Emax [29],combination Emax [30],combination Emax [31],combination Emax [32],combination Emax [33],combination Emax [34],combination Emax [35],combination Emax [36],combination Emax [37],combination Emax [38],combination Emax [39],combination Emax [40]
"N#Cc1cnc(Nc2cc(NC[C@H]3CNCCO3)c(C(F)(F)F)cn2)cn1 [SRA737] + Nc1ccn([C@@H]2O[C@H](CO)[C@@H](O)C2(F)F)c(=O)n1 [Gemcitabine] (first compound max 10 µM, 7x7, partner max 0.3 µM)",0.0297,0.0289,0.0294,0.0184,0.125,0.0539,0.039,-0.0294,0.0155,0.112,0.149,0.0859,0.0323,-0.042,0.112,-0.0752,0.127,0.0122,-0.0824,0.124,0.643,1,0.494,0.775,0.806,1,0.973,1,0.806,0.779,0.853,0.803,0.747,0.402,0.708,0.609,0.96,0.595,0.657,0.908
"N#Cc1cnc(Nc2cc(NC[C@H]3CNCCO3)c(C(F)(F)F)cn2)cn1 [SRA737] + O=c1[nH]cc(F)c(=O)[nH]1 [5-Fluorouracil] (first compound max 10 µM, 7x7, partner max 20 µM)",-0.0214,-0.0812,-0.0315,0.0078,-0.0561,-0.0498,-0.057,-0.0559,-0.0109,-0.0924,0.125,-0.0351,0.0222,-0.0735,-0.034,-0.0306,-0.0122,0.0463,-0.0334,0.0266,0.196,0.919,0.273,0.679,0.624,0.994,0.913,0.927,0.696,0.427,0.861,0.494,0.644,0.106,0.473,0.247,0.911,0.407,0.644,0.803
"Cc1nc(-c2cn3c(n2)-c2ccc(-c4cnn(C(C)(C)C(N)=O)c4)cc2OCC3)n(C(C)C)n1 [Taselisib] + O=C(Nc1ccc2[nH]nc(-c3ccncc3)c2c1)[C@@H]1CCN(CC(=O)N2CCN(c3ccc(-c4ncccn4)cc3)CC2)C1 [SCH772984] (first compound max 10 µM, 7x7, partner max 5 µM)",0.0674,0.0911,0.0283,0.0655,0.0114,0.0342,0.11,0.0003,0.133,-0.0601,0.0906,0.0652,0.0868,-0.0455,0.0166,0.0451,0.0209,0.126,-0.0183,0.115,0.686,1,0.823,0.991,0.493,0.493,0.999,0.671,0.973,0.104,0.983,0.575,0.757,0.599,0.349,0.827,0.627,0.906,0.63,0.737
"CC1(C)CCC(CN2CCN(c3ccc(C(=O)NS(=O)(=O)c4ccc(NCC5CCOCC5)c([N+](=O)[O-])c4)c(Oc4cnc5[nH]ccc5c4)c3)CC2)=C(c2ccc(Cl)cc2)C1 [Venetoclax] + CS(=O)(=O)CCNCc1ccc(-c2ccc3ncnc(Nc4ccc(OCc5cccc(F)c5)c(Cl)c4)c3c2)o1 [Lapatinib] (first compound max 1 µM, 7x7, partner max 10 µM)",-0.0418,0.108,-0.0757,-0.031,-0.0478,0.0154,-0.0046,-0.0027,-0.013,-0.065,-0.0326,0.0208,-0.0179,0.0483,0.0104,-0.0522,0.0911,-0.0113,-0.0236,-0.0279,0.145,0.764,0.112,0.262,0.568,0.539,0.182,0.291,0.909,0.181,0.226,0.528,0.147,0.493,1,0.149,1,0.294,0.343,0.318
